Assay results reported in ChEMBL document CHEMBL5058649, “Data for DCP probe BAY 1816032” (2022).

Tests used:
[1] = molecular target: Kappa-type opioid receptor (Homo sapiens) (UniProt P41145); conditions: Compound concentration 10.0 uM
[2] = molecular target: Bone morphogenetic protein receptor type-2 (Homo sapiens) (UniProt Q13873); experiment: BMPR2 DiscoveRx kinase panel; conditions: Compound concentration 1.0 uM
[3] = molecular target: Serine/threonine-protein kinase 36 (Homo sapiens) (UniProt Q9NRP7); experiment: STK36 DiscoveRx kinase panel; conditions: Compound concentration 1.0 uM
[4] = molecular target: Mitogen-activated protein kinase 14 (Homo sapiens) (UniProt Q16539); experiment: p38-alpha DiscoveRx kinase panel; conditions: Compound concentration 1.0 uM
[5] = molecular target: Tyrosine-protein kinase Fes/Fps (Homo sapiens) (UniProt P07332); experiment: FES DiscoveRx kinase panel; conditions: Compound concentration 1.0 uM
[6] = molecular target: Serine/threonine-protein kinase tousled-like 1 (Homo sapiens) (UniProt Q9UKI8); experiment: TLK1 DiscoveRx kinase panel; conditions: Compound concentration 1.0 uM
[7] = molecular target: Myosin light chain kinase (Homo sapiens) (UniProt Q32MK0); experiment: MLCK DiscoveRx kinase panel; conditions: Compound concentration 1.0 uM
[8] = molecular target: Ephrin type-A receptor 7 (Homo sapiens) (UniProt Q15375); experiment: EPHA7 DiscoveRx kinase panel; conditions: Compound concentration 1.0 uM
[9] = molecular target: Serine/threonine-protein kinase TAO1 (Homo sapiens) (UniProt Q7L7X3); experiment: TAOK1 DiscoveRx kinase panel; conditions: Compound concentration 1.0 uM
[10] = molecular target: Activated CDC42 kinase 1 (Homo sapiens) (UniProt Q07912); experiment: TNK2 DiscoveRx kinase panel; conditions: Compound concentration 1.0 uM
[11] = molecular target: Tyrosine-protein kinase Srms (Homo sapiens) (UniProt Q9H3Y6); experiment: SRMS DiscoveRx kinase panel; conditions: Compound concentration 1.0 uM
[12] = molecular target: Serine/threonine-protein kinase PLK2 (Homo sapiens) (UniProt Q9NYY3); experiment: PLK2 DiscoveRx kinase panel; conditions: Compound concentration 1.0 uM
[13] = molecular target: Cysteinyl leukotriene receptor 1 (Homo sapiens) (UniProt Q9Y271); experiment: Inhibition of Leukotriene, Cysteinyl CysLT1 at 10 µM in the Eurofins-Panlabs radioligand binding assay (Eurofins_assay_250460); design: ligand concentration 0.3 nM, non-specific ligand with concentration 0.3 µM Leukotriene D4, incubation time 30 min, incubation temperature 25 °C; conditions: Compound concentration 10.0 uM
[14] = molecular target: Serine/threonine-protein kinase 25 (Homo sapiens) (UniProt O00506); experiment: YSK1 DiscoveRx kinase panel; conditions: Compound concentration 1.0 uM
[15] = molecular target: Serine/threonine-protein kinase DCLK3 (Homo sapiens) (UniProt Q9C098); experiment: DCAMKL3 DiscoveRx kinase panel; conditions: Compound concentration 1.0 uM
[16] = molecular target: Mitogen-activated protein kinase 7 (Homo sapiens) (UniProt Q13164); experiment: ERK5 DiscoveRx kinase panel; conditions: Compound concentration 1.0 uM
[17] = molecular target: Mitogen-activated protein kinase kinase kinase 9 (Homo sapiens) (UniProt P80192); experiment: MLK1 DiscoveRx kinase panel; conditions: Compound concentration 1.0 uM
[18] = molecular target: Serine/threonine-protein kinase TNNI3K (Homo sapiens) (UniProt Q59H18); experiment: TNNI3K DiscoveRx kinase panel; conditions: Compound concentration 1.0 uM
[19] = molecular target: TGF-beta receptor type-2 (Homo sapiens) (UniProt P37173); experiment: TGFBR2 DiscoveRx kinase panel; conditions: Compound concentration 1.0 uM
[20] = molecular target: Ribosomal protein S6 kinase alpha-5 (Homo sapiens) (UniProt O75582); experiment: RPS6KA5(Kin.Dom.1-N-terminal) DiscoveRx kinase panel; conditions: Compound concentration 1.0 uM
[21] = molecular target: GABA-A receptor; anion channel (Rattus norvegicus) (UniProt O09028+P15431+P18506+P18508+P19969+P20236+P23574+P23576+P28471+P28473+P30191+P62813+P63079+P63138+Q91ZM7+Q9ES14); conditions: Compound concentration 10.0 uM
[22] = molecular target: Serine/threonine-protein kinase Sgk2 (Homo sapiens) (UniProt Q9HBY8); experiment: SGK2 DiscoveRx kinase panel; conditions: Compound concentration 1.0 uM
[23] = molecular target: Myosin-IIIa (Homo sapiens) (UniProt Q8NEV4); experiment: MYO3A DiscoveRx kinase panel; conditions: Compound concentration 1.0 uM
[24] = molecular target: Acetylcholinesterase (Homo sapiens) (UniProt P22303); conditions: Compound concentration 10.0 uM
[25] = molecular target: Casein kinase II subunit alpha (Homo sapiens) (UniProt P68400); experiment: CSNK2A1 DiscoveRx kinase panel; conditions: Compound concentration 1.0 uM
[26] = molecular target: Tyrosine-protein kinase Lck (Homo sapiens) (UniProt P06239); experiment: LCK DiscoveRx kinase panel; conditions: Compound concentration 1.0 uM
[27] = molecular target: Serine/threonine-protein kinase TAO2 (Homo sapiens) (UniProt Q9UL54); experiment: TAOK2 DiscoveRx kinase panel; conditions: Compound concentration 1.0 uM
[28] = molecular target: Ankyrin repeat and protein kinase domain-containing protein 1 (Homo sapiens) (UniProt Q8NFD2); experiment: ANKK1 DiscoveRx kinase panel; conditions: Compound concentration 1.0 uM
[29] = molecular target: Tyrosine-protein kinase ITK/TSK (Homo sapiens) (UniProt Q08881); experiment: ITK DiscoveRx kinase panel; conditions: Compound concentration 1.0 uM
[30] = molecular target: Dual specificity tyrosine-phosphorylation-regulated kinase 1A (Homo sapiens) (UniProt Q13627); experiment: DYRK1A DiscoveRx kinase panel; conditions: Compound concentration 1.0 uM
[31] = molecular target: Adenosine receptor A2a (Homo sapiens) (UniProt P29274); conditions: Compound concentration 10.0 uM
[32] = molecular target: STE20-like serine/threonine-protein kinase (Homo sapiens) (UniProt Q9H2G2); experiment: SLK DiscoveRx kinase panel; conditions: Compound concentration 1.0 uM
[33] = molecular target: Ephrin type-A receptor 4 (Homo sapiens) (UniProt P54764); experiment: EPHA4 DiscoveRx kinase panel; conditions: Compound concentration 1.0 uM
[34] = molecular target: Dual specificity protein kinase CLK4 (Homo sapiens) (UniProt Q9HAZ1); experiment: CLK4 DiscoveRx kinase panel; conditions: Compound concentration 1.0 uM
[35] = molecular target: Serine/threonine-protein kinase SIK1 (Homo sapiens) (UniProt P57059); experiment: SIK DiscoveRx kinase panel; conditions: Compound concentration 1.0 uM
[36] = molecular target: Beta-adrenergic receptor kinase 1 (Homo sapiens) (UniProt P25098); experiment: GRK2 DiscoveRx kinase panel; conditions: Compound concentration 1.0 uM
[37] = molecular target: Sodium-dependent dopamine transporter (Homo sapiens, UniProt Q01959); conditions: Compound concentration 10.0 uM
[38] = molecular target: Kappa-type opioid receptor (Homo sapiens) (UniProt P41145); conditions: Compound concentration 10.0 uM; remark: listed apart in the source
[39] = molecular target: Mitogen-activated protein kinase kinase kinase kinase 5 (Homo sapiens) (UniProt Q9Y4K4); experiment: MAP4K5 DiscoveRx kinase panel; conditions: Compound concentration 1.0 uM
[40] = molecular target: Calcium/calmodulin-dependent protein kinase type II subunit beta (Homo sapiens) (UniProt Q13554); experiment: CAMK2B DiscoveRx kinase panel; conditions: Compound concentration 1.0 uM
[41] = molecular target: Serine/threonine-protein kinase PAK 5 (Homo sapiens) (UniProt Q9P286); experiment: PAK7 DiscoveRx kinase panel; conditions: Compound concentration 1.0 uM
[42] = molecular target: Mitogen-activated protein kinase 3 (Homo sapiens) (UniProt P27361); experiment: ERK1 DiscoveRx kinase panel; conditions: Compound concentration 1.0 uM
[43] = molecular target: cAMP-dependent protein kinase catalytic subunit PRKX (Homo sapiens) (UniProt P51817); experiment: PRKX DiscoveRx kinase panel; conditions: Compound concentration 1.0 uM
[44] = molecular target: Serine/threonine-protein kinase BRSK1 (Homo sapiens) (UniProt Q8TDC3); experiment: BRSK1 DiscoveRx kinase panel; conditions: Compound concentration 1.0 uM
[45] = molecular target: Phosphatidylinositol 4,5-bisphosphate 3-kinase catalytic subunit delta isoform (Homo sapiens) (UniProt O00329); experiment: PIK3CD DiscoveRx kinase panel; conditions: Compound concentration 1.0 uM
[46] = molecular target: Serine/threonine-protein kinase 26 (Homo sapiens) (UniProt Q9P289); experiment: MST4 DiscoveRx kinase panel; conditions: Compound concentration 1.0 uM
[47] = molecular target: Dual specificity protein kinase TTK (Homo sapiens) (UniProt P33981); experiment: TTK DiscoveRx kinase panel; conditions: Compound concentration 1.0 uM
[48] = molecular target: Delta-type opioid receptor (Homo sapiens) (UniProt P41143); conditions: Compound concentration 10.0 uM

Kappa-type opioid receptor (Homo sapiens), sequence (P41145 whole entry): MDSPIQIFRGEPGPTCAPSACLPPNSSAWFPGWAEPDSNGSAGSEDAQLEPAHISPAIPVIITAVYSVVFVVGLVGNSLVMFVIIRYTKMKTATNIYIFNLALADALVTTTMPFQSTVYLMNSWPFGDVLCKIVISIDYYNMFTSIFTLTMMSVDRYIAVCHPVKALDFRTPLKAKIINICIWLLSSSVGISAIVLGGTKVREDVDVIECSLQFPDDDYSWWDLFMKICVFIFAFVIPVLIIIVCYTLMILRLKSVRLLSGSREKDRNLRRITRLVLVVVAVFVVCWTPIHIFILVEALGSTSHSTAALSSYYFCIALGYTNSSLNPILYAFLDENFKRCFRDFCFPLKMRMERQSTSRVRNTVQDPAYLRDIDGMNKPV
Acetylcholinesterase (Homo sapiens), sequence (P22303 whole entry): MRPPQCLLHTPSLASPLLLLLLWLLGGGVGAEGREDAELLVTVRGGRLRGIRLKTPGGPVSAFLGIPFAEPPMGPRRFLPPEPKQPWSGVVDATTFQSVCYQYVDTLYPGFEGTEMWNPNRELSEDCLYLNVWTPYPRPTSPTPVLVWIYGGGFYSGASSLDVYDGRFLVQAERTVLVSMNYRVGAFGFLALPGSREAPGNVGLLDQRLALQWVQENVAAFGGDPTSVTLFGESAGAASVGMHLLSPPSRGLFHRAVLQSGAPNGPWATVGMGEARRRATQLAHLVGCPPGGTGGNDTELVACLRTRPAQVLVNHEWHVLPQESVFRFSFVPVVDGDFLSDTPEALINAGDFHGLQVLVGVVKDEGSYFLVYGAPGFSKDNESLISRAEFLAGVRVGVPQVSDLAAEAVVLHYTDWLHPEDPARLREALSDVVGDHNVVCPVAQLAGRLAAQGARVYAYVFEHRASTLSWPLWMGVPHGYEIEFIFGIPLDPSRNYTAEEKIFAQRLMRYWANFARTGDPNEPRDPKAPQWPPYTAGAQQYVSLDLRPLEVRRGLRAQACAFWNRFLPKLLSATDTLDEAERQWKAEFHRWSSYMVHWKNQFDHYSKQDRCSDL
Bone morphogenetic protein receptor type-2 (Homo sapiens), sequence (Q13873 whole entry): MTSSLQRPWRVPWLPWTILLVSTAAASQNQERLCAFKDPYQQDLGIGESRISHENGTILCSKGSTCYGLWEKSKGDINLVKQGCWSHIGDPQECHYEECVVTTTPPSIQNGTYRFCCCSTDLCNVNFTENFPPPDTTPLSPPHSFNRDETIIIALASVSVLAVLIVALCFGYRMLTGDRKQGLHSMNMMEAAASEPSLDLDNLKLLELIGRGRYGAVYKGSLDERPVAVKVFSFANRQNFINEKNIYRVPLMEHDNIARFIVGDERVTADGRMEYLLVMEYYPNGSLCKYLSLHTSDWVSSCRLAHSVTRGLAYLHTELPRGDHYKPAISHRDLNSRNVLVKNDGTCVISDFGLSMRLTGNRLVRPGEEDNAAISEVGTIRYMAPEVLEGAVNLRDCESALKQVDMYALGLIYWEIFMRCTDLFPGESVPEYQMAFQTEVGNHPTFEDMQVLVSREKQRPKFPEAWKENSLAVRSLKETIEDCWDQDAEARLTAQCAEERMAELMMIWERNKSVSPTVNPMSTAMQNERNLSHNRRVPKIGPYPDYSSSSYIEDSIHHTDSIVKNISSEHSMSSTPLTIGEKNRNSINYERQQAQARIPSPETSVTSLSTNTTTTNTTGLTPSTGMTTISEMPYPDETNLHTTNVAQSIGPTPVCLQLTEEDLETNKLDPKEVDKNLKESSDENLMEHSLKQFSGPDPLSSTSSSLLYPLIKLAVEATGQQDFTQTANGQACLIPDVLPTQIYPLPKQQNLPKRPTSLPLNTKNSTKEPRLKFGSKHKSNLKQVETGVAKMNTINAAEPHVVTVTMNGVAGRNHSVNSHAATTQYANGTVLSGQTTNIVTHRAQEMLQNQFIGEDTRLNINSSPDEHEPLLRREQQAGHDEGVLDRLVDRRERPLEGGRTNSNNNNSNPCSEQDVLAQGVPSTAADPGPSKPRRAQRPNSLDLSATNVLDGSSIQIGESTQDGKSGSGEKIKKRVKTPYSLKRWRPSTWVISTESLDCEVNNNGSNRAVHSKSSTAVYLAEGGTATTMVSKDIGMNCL
TGF-beta receptor type-2 (Homo sapiens), sequence (P37173 whole entry): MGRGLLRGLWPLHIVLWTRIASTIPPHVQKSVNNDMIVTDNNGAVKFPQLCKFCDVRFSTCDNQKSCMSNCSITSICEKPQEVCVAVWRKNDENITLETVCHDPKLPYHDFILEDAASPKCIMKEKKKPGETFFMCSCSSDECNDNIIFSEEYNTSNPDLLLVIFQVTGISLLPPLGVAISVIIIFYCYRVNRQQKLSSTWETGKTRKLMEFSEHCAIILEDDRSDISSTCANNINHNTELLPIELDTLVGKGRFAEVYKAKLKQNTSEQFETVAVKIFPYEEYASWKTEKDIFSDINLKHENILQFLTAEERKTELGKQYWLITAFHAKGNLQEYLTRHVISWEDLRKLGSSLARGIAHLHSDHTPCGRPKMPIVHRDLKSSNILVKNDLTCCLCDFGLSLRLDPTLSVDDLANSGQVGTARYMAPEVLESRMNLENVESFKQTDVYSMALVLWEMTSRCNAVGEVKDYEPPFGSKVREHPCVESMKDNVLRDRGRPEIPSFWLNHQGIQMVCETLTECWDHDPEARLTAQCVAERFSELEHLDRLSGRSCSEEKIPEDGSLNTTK
Serine/threonine-protein kinase PLK2 (Homo sapiens), sequence (Q9NYY3 whole entry, looked up): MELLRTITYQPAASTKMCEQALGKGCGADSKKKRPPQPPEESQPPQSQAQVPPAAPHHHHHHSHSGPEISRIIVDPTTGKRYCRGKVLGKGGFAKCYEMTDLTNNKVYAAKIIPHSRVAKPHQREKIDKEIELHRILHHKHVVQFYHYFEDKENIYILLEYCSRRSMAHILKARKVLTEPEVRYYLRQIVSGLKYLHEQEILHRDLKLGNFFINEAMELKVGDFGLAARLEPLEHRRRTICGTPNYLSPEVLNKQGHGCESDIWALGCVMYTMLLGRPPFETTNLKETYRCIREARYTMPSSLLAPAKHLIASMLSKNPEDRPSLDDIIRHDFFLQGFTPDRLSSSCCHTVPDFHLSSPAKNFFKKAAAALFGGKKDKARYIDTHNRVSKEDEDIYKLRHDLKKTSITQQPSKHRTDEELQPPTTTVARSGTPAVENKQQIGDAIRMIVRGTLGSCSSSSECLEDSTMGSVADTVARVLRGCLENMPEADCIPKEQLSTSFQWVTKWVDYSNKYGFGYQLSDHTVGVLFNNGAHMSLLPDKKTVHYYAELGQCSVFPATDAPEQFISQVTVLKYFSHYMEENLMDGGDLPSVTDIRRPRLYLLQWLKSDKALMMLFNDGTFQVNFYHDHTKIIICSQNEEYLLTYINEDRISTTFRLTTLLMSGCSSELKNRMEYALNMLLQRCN
Ephrin type-A receptor 7 (Homo sapiens), sequence (Q15375 28-998 limits assumed): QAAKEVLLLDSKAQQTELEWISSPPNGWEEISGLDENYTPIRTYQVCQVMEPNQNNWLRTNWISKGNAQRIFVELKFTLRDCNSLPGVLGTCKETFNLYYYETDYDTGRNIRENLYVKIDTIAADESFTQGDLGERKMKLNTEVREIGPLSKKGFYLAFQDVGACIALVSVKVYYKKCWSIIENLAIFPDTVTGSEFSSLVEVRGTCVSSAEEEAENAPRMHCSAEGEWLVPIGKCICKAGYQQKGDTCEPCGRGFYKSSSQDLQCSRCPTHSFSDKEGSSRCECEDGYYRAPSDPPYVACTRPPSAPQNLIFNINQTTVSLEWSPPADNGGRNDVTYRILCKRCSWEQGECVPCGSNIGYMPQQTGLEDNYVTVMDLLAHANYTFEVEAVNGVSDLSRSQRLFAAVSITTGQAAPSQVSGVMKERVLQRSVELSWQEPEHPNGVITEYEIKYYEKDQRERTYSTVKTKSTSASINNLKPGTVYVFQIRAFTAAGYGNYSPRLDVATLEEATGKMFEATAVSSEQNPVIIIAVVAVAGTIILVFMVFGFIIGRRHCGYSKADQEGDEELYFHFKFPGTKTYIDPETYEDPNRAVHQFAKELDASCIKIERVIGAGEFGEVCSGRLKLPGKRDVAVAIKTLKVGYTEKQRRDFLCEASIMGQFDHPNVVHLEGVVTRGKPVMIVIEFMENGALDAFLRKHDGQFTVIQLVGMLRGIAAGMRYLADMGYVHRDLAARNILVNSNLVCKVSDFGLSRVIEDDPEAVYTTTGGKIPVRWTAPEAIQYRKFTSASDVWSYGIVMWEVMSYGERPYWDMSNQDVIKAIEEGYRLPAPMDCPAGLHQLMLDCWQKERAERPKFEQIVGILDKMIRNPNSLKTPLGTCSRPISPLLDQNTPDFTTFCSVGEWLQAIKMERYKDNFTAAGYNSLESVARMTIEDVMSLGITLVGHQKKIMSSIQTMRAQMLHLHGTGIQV
Mitogen-activated protein kinase 14 (Homo sapiens), sequence (Q16539 whole entry): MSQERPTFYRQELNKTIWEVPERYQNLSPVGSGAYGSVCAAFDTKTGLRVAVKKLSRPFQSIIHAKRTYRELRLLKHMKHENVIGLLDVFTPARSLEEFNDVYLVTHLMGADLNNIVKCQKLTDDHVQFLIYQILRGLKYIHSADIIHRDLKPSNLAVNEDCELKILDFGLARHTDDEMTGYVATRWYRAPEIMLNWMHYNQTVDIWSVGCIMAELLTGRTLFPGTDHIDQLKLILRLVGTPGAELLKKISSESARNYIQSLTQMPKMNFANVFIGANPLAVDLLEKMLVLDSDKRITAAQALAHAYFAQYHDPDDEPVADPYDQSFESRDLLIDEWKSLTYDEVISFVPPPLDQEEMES
Mitogen-activated protein kinase 3 (Homo sapiens), sequence (P27361 whole entry): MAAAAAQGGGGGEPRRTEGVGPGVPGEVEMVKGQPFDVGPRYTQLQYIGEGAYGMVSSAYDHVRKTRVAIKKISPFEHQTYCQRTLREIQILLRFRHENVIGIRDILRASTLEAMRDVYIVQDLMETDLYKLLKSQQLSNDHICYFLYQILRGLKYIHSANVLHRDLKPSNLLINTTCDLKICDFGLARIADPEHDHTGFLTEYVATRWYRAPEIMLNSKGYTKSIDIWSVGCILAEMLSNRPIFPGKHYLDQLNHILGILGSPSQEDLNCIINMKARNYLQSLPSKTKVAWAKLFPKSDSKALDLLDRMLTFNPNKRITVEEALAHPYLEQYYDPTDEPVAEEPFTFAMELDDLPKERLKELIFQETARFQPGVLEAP

## COc1cnccc1Nc1nc(-c2nn(Cc3c(F)cc(OCCO)cc3F)c3ccccc23)ncc1OC
[1]
  inhibition: 15.2%
[2]
  residual activity: 100%
[3]
  residual activity: 68%
[4]
  residual activity: 100%
[5]
  residual activity: 80%
[6]
  residual activity: 85%
[7]
  residual activity: 72%
[8]
  residual activity: 98%
[9]
  residual activity: 100%
[10]
  residual activity: 100%
[11]
  residual activity: 100%
[12]
  residual activity: 100%
[13]
  inhibition: 32%
[14]
  residual activity: 76%
[15]
  residual activity: 100%
[16]
  residual activity: 94%
[17]
  residual activity: 92%
[18]
  residual activity: 97%
[19]
  residual activity: 100%
[20]
  residual activity: 100%
[21]
  inhibition: 24.9%
[22]
  residual activity: 100%
[23]
  residual activity: 100%
[24]
  inhibition: 2%
[25]
  residual activity: 100%
[26]
  residual activity: 100%
[27]
  residual activity: 100%
[28]
  residual activity: 100%
[29]
  residual activity: 100%
[30]
  residual activity: 96%
[31]
  inhibition: 67%
[32]
  residual activity: 100%
[33]
  residual activity: 96%
[34]
  residual activity: 83%
[35]
  residual activity: 84%
[36]
  residual activity: 100%
[37]
  inhibition: -5%
[38]
  inhibition: 26%
[39]
  residual activity: 81%
[40]
  residual activity: 100%
[41]
  residual activity: 85%
[42]
  residual activity: 88%
[43]
  residual activity: 100%
[44]
  residual activity: 93%
[45]
  residual activity: 100%
[46]
  residual activity: 100%
[47]
  residual activity: 62%
[48]
  inhibition: -6%
